From US12343397B2, “Drug-resistant immune cells and methods of use thereof” (Regents of the University of Minnesota, priority 2018, dated 2025) come the findings set out here.

One test relates to xeno-GVHD model. In words: Xenogeneic GVHD model (NSG mice given human PBMC). The class given is in vivo. On the procedure:
FIGS. 11A-11D depicts the monitoring of GVHD in mice. Human PBMC (15×10^6) were injected into irradiated (50 rad) NSG mice±methylprednisolone (15 mg/kg), and signs of GVHD were monitored. FIG. 11A depicts a schematic illustration of the experiments indicating cohorts (n=7 mice each), dosing schedule, and analysis points. FIG. 11B depicts Kaplan-Meier survival curves for mice receiving PBMC only, or PBMC+prednisolone (p=0.104). FIG. 11C depicts disease progression monitored by weight loss (p=not significant). FIG. 11D depicts disease progression monitored by quantitating the number of PBMC-derived CD45+, CD4+, CD8+, and CD4+Foxp3+ T cells (p<0.03, <0.05, <0.03, and not significant, respectively). Animals were bled on day 19 for assessment.
FIGS. 12A-12D depicts the monitoring of GVHD in mice. […] FIG. 12B depicts Kaplan-Meier survival curves for mice receiving PBMC only, or PBMC+CNI (PBMC only vs. FK506 (36 mg/kg), p≤0.04). FIG. 12C depicts disease progression monitored by weight loss (p=not significant). FIG. 12D depicts disease progression monitored by quantitating the number of PBMC-derived CD45+, CD4+, CD8+, and CD4+Foxp3+ T cells (p<0.03, <0.05, <0.02, and not significant, respectively). Animals were bled on day 18 for assessment.
A follow up study has shown that xeno-GVHD pathology induced with 200 rad+1×10^7 human PBMC is more reproducible, and median survival is reduced from ˜25 days to ˜20 days.

Another test relates to Tregs. In words: CNI (CsA, FK506) effect on Treg survival in vitro. The class given is cell-based, human. The conditions noted are these: cyclosporine 20, 200, 2000 ng/ml or FK506 3, 10, 30 ng/ml, 2-3 days; IL-2 300 U/mL; even at >3-fold over peak therapeutic values.
A further test relates to allogeneic GVHD model. The class given is in vivo. The text has this:
To test whether gene modified (GR2-CRISPR/Cas9) or gene edited (GR2-CRISPR/Cas9/AAV-CaN mut.) Tregs have increased efficacy in vivo in the presence of glucocorticoid, how glucocorticoid (methyl-prednisolone) effects GVHD in preclinical mouse models was first determined. […] For these reasons, as well as the more logistically feasible and cost effective benefits of an allogeneic GVHD model, optimized steroid use in allogeneic recipients for GVHD prevention and therapy were first tested, and then applied to a xenogeneic model to enable testing of the human Treg product. […] The T cell dose was reduced to 1.5×10^6 and moved to GVHD therapy beginning on day 3 or day 4 (rather than day 1 prophylaxis) and compared no treatment to vehicle to prednisolone (n=8/group).

Source text for Tregs: The percent survival relative to the control Tregs without drugs is shown. IL-2 concentration of 300 U/mL was used. […] FIG. 7D depicts data showing the percent relative survival of Tregs without drug at IL-2 300 U/mL as compared to those cultured with the indicated concentrations of drug in the presence of IL-2 at 30, 100, or 300 U/mL as indicated. Mean values are shown±standard error of the mean for three (FIG. 7B) or four (FIG. 7D) separate cultures.
To model the in vivo inhibitory effects of CNI on Treg survival and expansion, banked Tregs were thawed, re-stimulated, expanded for 4±1 days and treated with or without cyclosporine (20, 200, and 2000 ng/ml) or FK506 (3, 10, 30 ng/ml) for an additional 2-3 days and relative survival was assessed by flow cytometry. Studies were performed with non-separated Tregs, naïve Tregs and memory Tregs, to determine whether one subset was differentially sensitive to Dex and CNIs and to determine whether IL-2 dependency differences might permit lower IL-2 concentrations.

Consider `C=CC[C@@H]1/C=C(\C)C[C@H](C)C[C@H](OC)[C@H]2O[C@@](O)(C(=O)C(=O)N3CCCC[C@H]3C(=O)O[C@H](/C(C)=C/[C@@H]3CC[C@@H](O)[C@H](OC)C3)[C@H](C)[C@@H](O)CC1=O)[C@H](C)C[C@@H]2OC` [FK506, Tacrolimus], for which the survival entry is given as “not significantly different” in the test with xeno-GVHD model (12 mg/kg, P=0.45) and “significantly decreased survival” in the test with xeno-GVHD model (high dose, 36 mg/kg). Besides, the median survival in the test with xeno-GVHD model (12 mg/kg, controls 29 days) was found to be 20 days. Moreover, in the test on xeno-GVHD model (FK506 36 or 12 mg/kg, CsA 80 mg/kg, vs PBMC only controls), the “in vivo expansion of human CD45+, CD4+ and CD8+ cells” value is “significantly reduced”. Also, in the test with Tregs, the “effect on Treg survival in vitro” value is “neither CsA or FK506 had a significant effect on Treg survival”. For the same compound, in the test on allogeneic GVHD model (36 mg/kg/day in carboxymethylcellulose, vehicle 0% by day 37), the “day 100 survival” value is given as 55%-90. Further, the GVHD prophylaxis efficacy entry in the test with allogeneic GVHD model (12 or 24 mg/kg/day in aqueous solution) is listed as “poorer efficacy”. For the same compound, in the test with allogeneic GVHD model (allogeneic GVHD model), the “optimal GVHD prophylactic dose” value is given as 36 mg/kg/day.
